# Measurements taken from patent US4898870A, “Pyrroloquinoline quinone compounds useful as an enzyme inhibitor” (Sogo Pharmaceutical Company Limited, priority 1986, dated 1990).
# Key:
# Format in all cases: biochemical
# [1] = target: T1, human placental aldose reductase (Homo sapiens, UniProt P15121); test: Inhibition of human placental aldose reductase
# T1 construct: An enzyme solution was prepared from human placenta; from tissue; host or cells: human placenta
# Protocol: (§1) Specifically reaction was started by adding dl-glyceraldehyde as a substrate to a reaction solution containing rat lens homogenate, Li2 SO4, NADPH2 and inhibitor, and the enzyme activity was measured by the decrease of the optical absorption of NADPH2 (optical density: OD) at 340 nm for 5 min. The solution with no addition of the substrate was used for the blank OD. The inhibiting ratio for the aldose reductase reaction by the inhibitor was determined by the following equation: [formula]
# The determination of enzyme activity was same as in Test Example 1 except enzyme source was human placenta.
# (§2) To a reaction solution containing the chick lens homogenate, Li2 SO4, NADPH2 and an inhibitor, was added dlglyceraldehyde as substrate to start the reaction, and the enzymatic activity was determined by measuring the decrease in optical density (OD) of NADPH2 at 340 nm after five minutes. A solution with no substrate added was used for the blank test. The inhibition rate against the aldose reductase reaction was calculated from the following equation: [formula]
# An enzyme solution was prepared from human placenta, and the inhibitory action of PQQ·2K against human placental aldose reductase was measured in the same way as in Test Example 4.
# An enzyme solution was prepared from human placenta, and the inhibitory action of PQQ·3Me against human placental aldose reductase was measured in the same way as in Test Example 4.
# An enzyme solution was prepared from human placenta, and the inhibitory action of PQQ·2Me.Et against human placental aldose reductase was measured in the same way as in Test Example 4.
# [2] = target: T2, rat lens aldose reductase (Rattus norvegicus, UniProt P07943); test: Inhibition of rat lens aldose reductase (NADPH2 OD decrease at 340 nm)
# T2 construct: A homogenate of rat lens was used; from tissue; host or cells: rat lens (crude homogenate; in later tests the 3,000 rpm supernatant)
# Protocol: A homogenate of rat lens was used and the activity of aldose reductase was measured by the method of Kinoshita, et. al. (Kinoshita J. H., et al, Metabolism, 28, 462-469, (1979)).
# as §1, §2
# A homogenate of rat lens was centrifuged for four minutes at 3,000 rpm under cooling, the supernatant was collected as an enzyme solution, and the inhibitory action of PQQ·H2 against aldose reductase was measured in the same way as in Test Example 4.
# An enzyme solution was prepared from rat lens in the same manner as in Test Example 10, and the inhibitory action of PQQ·3Me against rat lens aldose reductase was measured in the same way as in Test Example 4.
# [3] = target: T3, bovine lens aldose reductase (Bos taurus, UniProt P16116); test: Inhibition of bovine lens aldose reductase
# T3 construct: A homogenate of bovine lens was centrifuged for ten minutes at 20,000 rpm under cooling; from tissue; host or cells: bovine lens (20,000 rpm supernatant of homogenate)
# Protocol: as §1
# The determination of enzyme activity was same as in Test Example 1 except enzyme source was bovine lens.
# as §2
# A homogenate of bovine lens was centrifuged for ten minutes at 20,000 rpm under cooling, the supernatant was collected as an enzyme solution, and the inhibitory action of PQQ against aldose reductase was measured in the same way as in Test Example 4.
# A homogenate of bovine lens was centrifuged for ten minutes at 20,000 rpm under cooling, the supernatant was collected as an enzyme solution, and the inhibitory action of PQQ·H2 against bovine lens aldose reductase was measured in the same way as in Test Example 4.
# An enzyme solution was prepared from chick lens in the same manner as in Test Example 9, and the inhibitory action of PQQ·3Me against bovine lens aldose reductase was measured in the same way as in Test Example 4.
# [4] = test system: chick lens aldose reductase; test: Inhibition of chick lens aldose reductase
# Protocol: The activity of aldose reductase was measured according to the method of Kinoshita et al. [Metabolism, 28, 462-469 (1979)] using a homogenate of chick lens.
# as §2
# An enzyme solution was prepared from chick lens in the same manner as in Test Example 4, and the inhibitory action of PQQ·H2 against aldose reductase was measured in the same way as in Test Example 4.
# An enzyme solution was prepared from chick lens in the same manner as in Test Example 4, and the inhibitory action of PQQ·3Me against aldose reductase was measured in the same way as in Test Example 4.
# [5] = inhibitor 10^-6 M/reaction soln.
# [6] = inhibitor 10^-7 M/reaction soln.
# [7] = inhibitor 10^-5 M/reaction soln., read-out: Inhibition Rate
# [8] = inhibitor 10^-6 M/reaction soln., read-out: Inhibition Rate
molecule,measurement,setting,value
PQQ dimethyl ethyl ester [PQQ.2Me.Et],concentration inhibiting the activity by 100%,[1]; human placenta,2.5 µM
same,IC50,[1]; human placenta enzyme,0.42 µM
same,Inhibition Rate,[1]; inhibitor 1.25 × 10^-6 M/reaction soln.,97.1%
same,Inhibition Rate,[1]; inhibitor 2 × 10^-7 M/reaction soln.,17.6%
same,Inhibition Rate,[1]; inhibitor 2.5 × 10^-6 M/reaction soln.,100%
same,Inhibition Rate,[1]; inhibitor 3 × 10^-7 M/reaction soln.,29.3%
same,Inhibition Rate,[1]; inhibitor 5 × 10^-7 M/reaction soln.,59.0%
same,Inhibition Rate,[1]; [5],91.2%
same,Inhibition Rate,[1]; [6],0%
"O=C(O)c1cc(C(=O)O)c2c(n1)c(O)c(O)c1cc(C(=O)O)[nH]c12 [PQQ.H2, PQQ reduced form]",inhibition at 20 µM,"[2]; inhibitor 2 × 10^-5 M/reaction soln., read-out: Inhibition Rate",100%
same,inhibition at 10 µM,[2]; [7],59.5%
same,inhibition at 1 µM,[2]; [8],15.1%
same,Inhibition Rate,[2]; inhibitor concentration not printed (first line of Table 11),0%
same,IC50,"[2]; rat lens homogenate, substrate dl-glyceraldehyde",8.5 µM
same,IC100,"[2]; rat lens, read-out: concentration inhibiting the activity by 100%",20 µM
same,IC50,[3]; bovine lens enzyme,5 µM
same,IC100,"[3]; bovine lens, read-out: concentration inhibiting the activity by 100%",8 µM
same,inhibition at 4 µM,"[3]; inhibitor 4 × 10^-6 M/reaction soln., read-out: Inhibition Rate",27.8%
same,inhibition at 6 µM,"[3]; inhibitor 6 × 10^-6 M/reaction soln., read-out: Inhibition Rate",89.9%
same,inhibition at 8 µM,"[3]; inhibitor 8 × 10^-6 M/reaction soln., read-out: Inhibition Rate",100%
same,inhibition at 100 µM,"[3]; inhibitor 10^-4 M/reaction soln., read-out: Inhibition Rate",100%
same,inhibition at 10 µM,[3]; [7],100%
same,inhibition at 1 µM,[3]; [8],0%
same,inhibition at 0.1 µM,"[3]; inhibitor 10^-7 M/reaction soln., read-out: Inhibition Rate",0%
same,concentration inhibiting the activity by 100%,[4]; chick lens,60 µM
same,IC50,"[4]; chick lens homogenate, read-out: concentration inhibiting the aldose reductase activity by 50%",6 µM
same,Inhibition Rate,[4]; inhibitor 2 × 10^-5 M/reaction soln.,68.4%
same,Inhibition Rate,[4]; inhibitor 4 × 10^-5 M/reaction soln.,92.8%
same,Inhibition Rate,[4]; inhibitor 6 × 10^-5 M/reaction soln.,100%
same,Inhibition Rate,[4]; inhibitor 8 × 10^-5 M/reaction soln.,100%
same,Inhibition Rate,[4]; inhibitor 10^-4 M/reaction soln.,100%
same,Inhibition Rate,[4]; inhibitor 10^-5 M/reaction soln.,62.1%
same,Inhibition Rate,[4]; [5],31.8%
same,Inhibition Rate,[4]; [6],0%
